Experimental data reported in ChEMBL document CHEMBL1201862, “PubChem BioAssay data set” (2004).
Calls of active or inactive are those of the source.

Columns and labels:
[1] = molecular target: Beta-lactamase (Pseudomonas aeruginosa, UniProt Q79MP6);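 further: biochemical dose-response test of metallo-beta-lactamase enzyme inhibition, read out by epi-absorbance; purified recombinant IMP-1 metallo-beta-lactamase with nitrocefin as substrate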
[2] = molecular target: Beta-lactamase (Salmonella choleraesuis (strain SC-B67), UniProt Q5J463)
Chain of Beta-lactamase (Salmonella choleraesuis (strain SC-B67), UniProt Q5J463) (Q5J463 whole entry): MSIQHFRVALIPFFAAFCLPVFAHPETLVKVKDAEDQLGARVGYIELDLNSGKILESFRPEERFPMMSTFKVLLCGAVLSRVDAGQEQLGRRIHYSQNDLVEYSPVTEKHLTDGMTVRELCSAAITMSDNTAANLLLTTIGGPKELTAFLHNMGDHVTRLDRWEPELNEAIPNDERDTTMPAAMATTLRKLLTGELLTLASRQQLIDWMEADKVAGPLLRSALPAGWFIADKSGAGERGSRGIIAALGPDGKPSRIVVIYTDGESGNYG

[3] = molecular target: Intestinal-type alkaline phosphatase (Mus musculus, UniProt P24822); assay: PubChem AID 488874; assay type: functional
Chain of Intestinal-type alkaline phosphatase (Mus musculus, UniProt P24822) (P24822 whole entry): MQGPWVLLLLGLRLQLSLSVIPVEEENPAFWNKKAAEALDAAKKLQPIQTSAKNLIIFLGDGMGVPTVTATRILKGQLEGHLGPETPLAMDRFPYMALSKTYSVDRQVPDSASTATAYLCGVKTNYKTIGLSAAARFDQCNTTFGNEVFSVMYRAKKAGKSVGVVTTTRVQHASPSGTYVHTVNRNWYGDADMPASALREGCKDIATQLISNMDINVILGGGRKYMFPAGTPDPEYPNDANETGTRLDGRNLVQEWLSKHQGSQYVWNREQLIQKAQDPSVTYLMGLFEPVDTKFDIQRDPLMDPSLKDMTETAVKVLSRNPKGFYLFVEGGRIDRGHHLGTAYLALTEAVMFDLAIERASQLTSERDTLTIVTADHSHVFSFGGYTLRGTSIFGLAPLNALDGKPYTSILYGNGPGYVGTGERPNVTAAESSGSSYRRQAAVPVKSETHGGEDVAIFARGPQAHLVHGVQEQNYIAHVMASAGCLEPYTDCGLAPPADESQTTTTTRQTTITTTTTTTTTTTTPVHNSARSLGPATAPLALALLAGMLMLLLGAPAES

[4] = molecular target: T1, Intestinal-type alkaline phosphatase (Homo sapiens, UniProt P09923); assay: inhibition of human intestinal alkaline phosphatase – biochemical, luminescent, uHTS hits, set 2, dose response (AID 488793); assay type: functional
T1 sequence (P09923 whole entry): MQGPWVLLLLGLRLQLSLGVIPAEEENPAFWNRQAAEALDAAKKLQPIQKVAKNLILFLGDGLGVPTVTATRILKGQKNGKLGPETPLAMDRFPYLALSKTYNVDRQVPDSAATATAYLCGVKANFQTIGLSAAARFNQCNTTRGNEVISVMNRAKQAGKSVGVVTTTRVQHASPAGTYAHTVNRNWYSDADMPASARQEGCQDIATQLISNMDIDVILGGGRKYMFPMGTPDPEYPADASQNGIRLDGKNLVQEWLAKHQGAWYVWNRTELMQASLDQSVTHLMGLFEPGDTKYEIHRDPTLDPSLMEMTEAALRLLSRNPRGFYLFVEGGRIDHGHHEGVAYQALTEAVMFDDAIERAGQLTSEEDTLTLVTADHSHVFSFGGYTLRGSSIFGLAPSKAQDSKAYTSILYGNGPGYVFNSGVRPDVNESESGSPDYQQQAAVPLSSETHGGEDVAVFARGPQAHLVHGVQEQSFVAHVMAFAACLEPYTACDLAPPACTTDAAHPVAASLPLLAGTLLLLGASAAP

[5] = molecular target: T1, Intestinal-type alkaline phosphatase; assay: Dose Response confirmation of uHTS hits from a small molecule inhibitors of human intestinal alkaline phosphatase via a luminescent assay. [Related pubchem assays (depositor defined):AID2544, AID2574]; assay type: functional
[6] = molecular target: ORF 73 (Human herpesvirus 8, UniProt O40947); assay: KSHV LANA DNA-binding disruption – biochemical, fluorescence polarization, cherry-picked samples, dose response (AID 504725); parameters: species or system Human gammaherpesvirus 8;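 further: fluorescence polarization of a labeled DNA duplex reporting LANA DNA binding; potency is for inhibitors that block LANA binding to the DNA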
Chain of ORF 73 (O40947 whole entry): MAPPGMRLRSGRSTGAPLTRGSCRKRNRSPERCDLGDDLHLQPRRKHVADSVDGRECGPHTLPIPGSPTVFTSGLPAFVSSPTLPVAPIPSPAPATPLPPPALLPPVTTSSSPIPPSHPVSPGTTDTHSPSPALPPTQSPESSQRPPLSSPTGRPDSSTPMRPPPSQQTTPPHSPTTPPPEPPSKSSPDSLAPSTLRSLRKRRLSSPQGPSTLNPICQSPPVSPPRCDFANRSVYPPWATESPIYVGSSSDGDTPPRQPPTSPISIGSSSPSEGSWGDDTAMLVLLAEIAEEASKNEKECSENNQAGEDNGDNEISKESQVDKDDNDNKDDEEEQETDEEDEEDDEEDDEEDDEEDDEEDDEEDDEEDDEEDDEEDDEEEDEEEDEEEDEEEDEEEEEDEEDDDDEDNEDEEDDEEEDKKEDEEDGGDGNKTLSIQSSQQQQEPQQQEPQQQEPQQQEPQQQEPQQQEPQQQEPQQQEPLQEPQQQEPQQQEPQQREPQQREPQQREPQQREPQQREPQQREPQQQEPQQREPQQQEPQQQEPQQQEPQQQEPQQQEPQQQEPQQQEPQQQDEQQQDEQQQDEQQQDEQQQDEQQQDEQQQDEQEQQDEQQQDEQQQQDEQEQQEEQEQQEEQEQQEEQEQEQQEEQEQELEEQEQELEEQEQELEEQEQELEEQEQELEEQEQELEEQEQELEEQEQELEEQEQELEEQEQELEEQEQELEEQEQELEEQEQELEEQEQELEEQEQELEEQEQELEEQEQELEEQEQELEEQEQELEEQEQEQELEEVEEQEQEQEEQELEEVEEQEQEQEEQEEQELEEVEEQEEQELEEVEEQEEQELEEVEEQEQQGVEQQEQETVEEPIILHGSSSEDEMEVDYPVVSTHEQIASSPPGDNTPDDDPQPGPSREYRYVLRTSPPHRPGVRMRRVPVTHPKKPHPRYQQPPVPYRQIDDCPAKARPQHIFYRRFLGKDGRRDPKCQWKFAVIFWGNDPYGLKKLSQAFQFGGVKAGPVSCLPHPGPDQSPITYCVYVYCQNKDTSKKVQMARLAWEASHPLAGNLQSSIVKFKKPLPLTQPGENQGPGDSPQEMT

[7] = molecular target: T2, Alkaline phosphatase, tissue-nonspecific isozyme (Homo sapiens, UniProt P05186); assay: inhibition of tissue-nonspecific alkaline phosphatase – biochemical, dose response (AID 488882); assay type: functional
T2 sequence (P05186 whole entry): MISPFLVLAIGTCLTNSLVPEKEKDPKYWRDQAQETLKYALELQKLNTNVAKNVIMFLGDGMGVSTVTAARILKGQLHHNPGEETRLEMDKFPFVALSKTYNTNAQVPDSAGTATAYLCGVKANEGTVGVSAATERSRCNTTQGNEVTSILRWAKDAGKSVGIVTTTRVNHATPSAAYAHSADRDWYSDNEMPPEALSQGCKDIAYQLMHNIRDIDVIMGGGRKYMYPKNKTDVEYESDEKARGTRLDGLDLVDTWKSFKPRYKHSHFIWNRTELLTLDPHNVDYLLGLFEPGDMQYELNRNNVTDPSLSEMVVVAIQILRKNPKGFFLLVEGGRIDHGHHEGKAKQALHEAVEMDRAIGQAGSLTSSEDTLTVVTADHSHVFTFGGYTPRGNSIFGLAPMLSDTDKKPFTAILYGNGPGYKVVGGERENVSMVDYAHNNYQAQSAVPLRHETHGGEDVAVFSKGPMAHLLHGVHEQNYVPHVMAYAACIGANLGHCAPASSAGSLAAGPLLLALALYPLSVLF

[8] = molecular target: T3, Insulin-degrading enzyme (Homo sapiens, UniProt P14735); assay: recombinant IDE activation, cell-free – biochemical, fluorescence polarization, counter-screen for IDE activator project, dose response (AID 588681)
T3 sequence (P14735 whole entry): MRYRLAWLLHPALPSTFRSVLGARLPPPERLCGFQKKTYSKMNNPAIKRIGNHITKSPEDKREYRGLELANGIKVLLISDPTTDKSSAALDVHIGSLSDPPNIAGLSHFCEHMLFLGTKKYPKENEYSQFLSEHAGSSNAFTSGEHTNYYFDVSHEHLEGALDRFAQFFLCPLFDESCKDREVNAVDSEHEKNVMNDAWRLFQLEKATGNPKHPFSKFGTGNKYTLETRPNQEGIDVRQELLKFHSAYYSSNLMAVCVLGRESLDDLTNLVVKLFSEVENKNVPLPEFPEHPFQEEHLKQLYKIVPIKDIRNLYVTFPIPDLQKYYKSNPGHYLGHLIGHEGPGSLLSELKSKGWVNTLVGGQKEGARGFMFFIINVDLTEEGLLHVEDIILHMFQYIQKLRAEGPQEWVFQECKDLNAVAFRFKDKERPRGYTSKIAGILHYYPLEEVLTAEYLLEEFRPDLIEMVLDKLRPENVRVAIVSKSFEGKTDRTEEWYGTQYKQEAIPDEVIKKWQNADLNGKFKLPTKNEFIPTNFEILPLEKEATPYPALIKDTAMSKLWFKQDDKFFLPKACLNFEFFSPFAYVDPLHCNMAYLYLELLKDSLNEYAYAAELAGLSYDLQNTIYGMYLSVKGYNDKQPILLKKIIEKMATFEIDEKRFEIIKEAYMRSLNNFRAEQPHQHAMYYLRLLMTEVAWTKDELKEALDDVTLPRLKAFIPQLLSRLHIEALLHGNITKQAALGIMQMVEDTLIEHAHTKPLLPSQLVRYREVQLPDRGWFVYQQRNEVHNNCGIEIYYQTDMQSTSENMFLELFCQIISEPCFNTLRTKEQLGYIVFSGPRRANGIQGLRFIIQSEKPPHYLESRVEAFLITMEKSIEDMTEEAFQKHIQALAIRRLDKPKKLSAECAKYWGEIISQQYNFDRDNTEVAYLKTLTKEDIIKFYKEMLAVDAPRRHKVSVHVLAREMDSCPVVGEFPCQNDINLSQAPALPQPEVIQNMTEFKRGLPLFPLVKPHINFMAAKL

[9] = molecular target: T3, Insulin-degrading enzyme; assay: cellular IDE activation of Abeta substrate cleavage – fluorescence polarization, HEK cells, dose response (AID 588439); assay type: functional, cell-based
[10] = system: HEK293; assay: membrane integrity loss in HEK cells – cell-based, fluorescence, cytotoxicity control for IDE activator project, dose response (AID 588440); assay type: functional; settings: Homo sapiens;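 further: cytotoxicity by LDH release measuring loss of membrane integrity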
[11] = system: HEK293; assay: optical interference in Abeta FP readout, dose response, artefact control for IDE activator project, biochemical, fluorescence polarization (AID 588442); assay type: functional, cell-based; settings: Homo sapiens
[12] = molecular target: T4, RNA-binding protein pos-1 (Caenorhabditis elegans, UniProt G5EF15); assay: disruptors of C. elegans POS-1 RNA interaction – biochemical, fluorescence polarization, dose response (AID 1964);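 further: purified POS-1 fused to maltose binding protein made in E. coli; potency of compounds blocking POS-1 binding to fluorescent RNA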
T4 sequence (G5EF15 whole entry): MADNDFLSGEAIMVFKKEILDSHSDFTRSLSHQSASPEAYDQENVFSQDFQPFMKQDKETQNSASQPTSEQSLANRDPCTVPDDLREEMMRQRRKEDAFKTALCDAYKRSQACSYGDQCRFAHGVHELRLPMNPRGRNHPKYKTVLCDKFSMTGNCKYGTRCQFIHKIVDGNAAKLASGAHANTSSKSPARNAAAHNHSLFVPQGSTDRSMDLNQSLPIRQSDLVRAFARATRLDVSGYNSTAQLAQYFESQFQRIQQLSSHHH

[13] = molecular target: T5, Zinc finger protein mex-5 (Caenorhabditis elegans, UniProt Q9XUB2); assay: potency of MEX-5 RNA-binding blockers – biochemical, C. elegans, fluorescence polarization, dose response (AID 1960)
T5 sequence (Q9XUB2 whole entry): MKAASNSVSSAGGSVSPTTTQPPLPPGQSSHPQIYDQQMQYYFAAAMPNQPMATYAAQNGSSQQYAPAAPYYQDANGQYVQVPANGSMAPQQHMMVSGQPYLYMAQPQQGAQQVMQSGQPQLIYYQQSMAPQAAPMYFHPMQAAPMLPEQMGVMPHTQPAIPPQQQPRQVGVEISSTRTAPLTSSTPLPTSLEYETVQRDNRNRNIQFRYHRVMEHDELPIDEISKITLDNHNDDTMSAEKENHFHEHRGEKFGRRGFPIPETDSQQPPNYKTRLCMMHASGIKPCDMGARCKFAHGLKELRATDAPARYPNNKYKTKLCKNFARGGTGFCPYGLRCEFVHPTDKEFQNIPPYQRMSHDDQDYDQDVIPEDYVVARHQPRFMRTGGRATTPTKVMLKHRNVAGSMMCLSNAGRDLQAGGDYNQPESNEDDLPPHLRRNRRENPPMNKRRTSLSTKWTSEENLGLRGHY

[14] = system: CHO-K1; assay: (§1) Counterscreen for antagonists of the orexin 1 receptor (OX1R; HCRTR1): Homogeneous time resolved fluorescence (HTRF)-based cell-based dose response assay to identify antagonists of the parental CHO-K1 cell line. [Related pubchem assays (depositor defined):AID434989, AID435008, AID463079, AID485270, AID492963, AID492964, AID492965, AID493232, AID504699, AID504701]; assay type: functional; settings: Cricetulus griseus
[15] = as §1, with “Fluorescence-based” for “Homogeneous time resolved fluorescence (HTRF)-based”, “cell-based high throughput” for “cell-based”, “CHO” for “CHO-K1”; assay type: functional
[16] = molecular target: T6, Orexin/Hypocretin receptor type 1 (Homo sapiens, UniProt O43613); assay: Homogeneous Time Resolved Fluorescence (HTRF)-based cell-based high throughput dose response assay for antagonists of the orexin 1 receptor (OX1R; HCRTR1). [Related pubchem assays (depositor defined):AID434989, AID435008, AID463079, AID485270, AID492963, AID492964, AID492965, AID493232, AID504717, AID504718]; assay type: functional
T6 sequence (O43613 whole entry): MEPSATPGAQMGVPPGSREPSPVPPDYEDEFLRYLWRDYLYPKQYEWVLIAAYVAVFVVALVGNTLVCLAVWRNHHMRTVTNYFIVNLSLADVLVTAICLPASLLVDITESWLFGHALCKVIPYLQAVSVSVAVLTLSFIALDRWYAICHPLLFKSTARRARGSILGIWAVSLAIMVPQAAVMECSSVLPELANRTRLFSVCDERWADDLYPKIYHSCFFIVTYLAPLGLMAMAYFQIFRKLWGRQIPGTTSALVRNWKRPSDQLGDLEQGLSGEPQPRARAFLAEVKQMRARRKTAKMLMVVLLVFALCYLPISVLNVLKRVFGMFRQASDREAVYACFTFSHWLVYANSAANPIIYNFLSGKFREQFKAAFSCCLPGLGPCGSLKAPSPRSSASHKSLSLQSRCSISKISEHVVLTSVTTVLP

[17] = molecular target: T6, Orexin/Hypocretin receptor type 1; assay: Fluorescence-based cell-based high throughput dose response assay for antagonists of the orexin 1 receptor (OX1R; HCRTR1). [Related pubchem assays (depositor defined):AID434989, AID435008, AID463079, AID485270, AID492963, AID492964, AID492965, AID493232, AID504717, AID504718]; assay type: functional
[18] = molecular target: T7, Orexin receptor type 2 (Homo sapiens, UniProt O43614); assay: Counterscreen assay for antagonists of the orexin 1 receptor (OX1R; HCRTR1): Fluorescence-based cell-based dose response assay for antagonists of the orexin 2 receptor (OX2R; HCRTR2), run by assay provider.; assay type: functional
T7 sequence (O43614 whole entry): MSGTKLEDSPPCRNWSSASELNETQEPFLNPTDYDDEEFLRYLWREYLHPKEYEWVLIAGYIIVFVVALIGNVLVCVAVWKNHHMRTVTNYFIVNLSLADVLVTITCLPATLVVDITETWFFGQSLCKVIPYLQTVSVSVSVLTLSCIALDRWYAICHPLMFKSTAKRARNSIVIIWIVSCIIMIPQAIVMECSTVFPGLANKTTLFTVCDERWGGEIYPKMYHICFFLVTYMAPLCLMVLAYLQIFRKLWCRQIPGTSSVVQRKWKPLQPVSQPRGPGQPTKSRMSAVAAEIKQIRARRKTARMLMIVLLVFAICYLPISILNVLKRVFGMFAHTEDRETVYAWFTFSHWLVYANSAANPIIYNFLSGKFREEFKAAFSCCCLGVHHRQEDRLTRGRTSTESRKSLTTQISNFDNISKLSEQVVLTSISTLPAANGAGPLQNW

[19] = molecular target: T7, Orexin receptor type 2; assay: Counterscreen assay for antagonists of the orexin 1 receptor (OX1R; HCRTR1): Homogeneous Time Resolved Fluorescence (HTRF)-based cell-based dose response assay for antagonists of the orexin 2 receptor (OX2R; HCRTR2), run by assay provider.; assay type: functional
[20] = molecular target: Sphingosine 1-phosphate receptor 2 (Homo sapiens, UniProt O95136); assay: Late-stage fluorescence-based dose-response cell-based counterscreen assay to identify agonists of the Sphingosine 1-Phosphate Receptor 3 (S1P3): Sphingosine 1-Phosphate Receptor 2 (S1P2) agonist assay.; assay type: functional
Chain of Sphingosine 1-phosphate receptor 2 (O95136 whole entry): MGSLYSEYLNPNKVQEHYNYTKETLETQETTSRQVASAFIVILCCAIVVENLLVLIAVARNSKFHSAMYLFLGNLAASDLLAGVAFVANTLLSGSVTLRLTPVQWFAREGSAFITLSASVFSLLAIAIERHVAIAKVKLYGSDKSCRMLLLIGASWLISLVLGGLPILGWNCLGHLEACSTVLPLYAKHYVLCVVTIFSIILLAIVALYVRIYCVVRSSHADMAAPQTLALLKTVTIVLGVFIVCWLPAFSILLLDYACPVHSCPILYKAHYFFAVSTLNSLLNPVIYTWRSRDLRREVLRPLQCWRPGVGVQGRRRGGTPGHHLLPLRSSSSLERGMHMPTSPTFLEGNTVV

[21] = molecular target: T8, Sphingosine 1-phosphate receptor 4 (Homo sapiens, UniProt O95977); assay: Late-stage fluorescence-based dose-response cell-based counterscreen assay to identify agonists of the Sphingosine 1-Phosphate Receptor 3 (S1P3): Sphingosine 1-Phosphate Receptor 4 (S1P4) agonist assay.; assay type: functional
T8 sequence (O95977 whole entry): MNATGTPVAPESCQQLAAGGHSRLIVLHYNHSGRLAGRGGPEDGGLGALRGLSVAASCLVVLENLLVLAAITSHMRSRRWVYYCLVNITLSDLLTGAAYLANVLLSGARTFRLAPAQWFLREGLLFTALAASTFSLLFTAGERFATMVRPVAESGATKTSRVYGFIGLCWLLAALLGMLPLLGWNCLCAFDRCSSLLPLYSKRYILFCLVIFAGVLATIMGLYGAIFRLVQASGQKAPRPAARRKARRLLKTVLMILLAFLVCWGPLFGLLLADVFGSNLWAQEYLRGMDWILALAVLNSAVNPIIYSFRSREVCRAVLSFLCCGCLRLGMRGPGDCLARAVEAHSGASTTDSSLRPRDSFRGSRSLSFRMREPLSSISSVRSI

[22] = molecular target: T9, Apoptotic protease-activating factor 1 (Homo sapiens, UniProt O14727); assay: SAR analysis of small molecule inhibitors of Apaf-1 in a Fluorescent assay.; assay type: functional; settings: read-out: IC50_Mean
T9 sequence (O14727 whole entry): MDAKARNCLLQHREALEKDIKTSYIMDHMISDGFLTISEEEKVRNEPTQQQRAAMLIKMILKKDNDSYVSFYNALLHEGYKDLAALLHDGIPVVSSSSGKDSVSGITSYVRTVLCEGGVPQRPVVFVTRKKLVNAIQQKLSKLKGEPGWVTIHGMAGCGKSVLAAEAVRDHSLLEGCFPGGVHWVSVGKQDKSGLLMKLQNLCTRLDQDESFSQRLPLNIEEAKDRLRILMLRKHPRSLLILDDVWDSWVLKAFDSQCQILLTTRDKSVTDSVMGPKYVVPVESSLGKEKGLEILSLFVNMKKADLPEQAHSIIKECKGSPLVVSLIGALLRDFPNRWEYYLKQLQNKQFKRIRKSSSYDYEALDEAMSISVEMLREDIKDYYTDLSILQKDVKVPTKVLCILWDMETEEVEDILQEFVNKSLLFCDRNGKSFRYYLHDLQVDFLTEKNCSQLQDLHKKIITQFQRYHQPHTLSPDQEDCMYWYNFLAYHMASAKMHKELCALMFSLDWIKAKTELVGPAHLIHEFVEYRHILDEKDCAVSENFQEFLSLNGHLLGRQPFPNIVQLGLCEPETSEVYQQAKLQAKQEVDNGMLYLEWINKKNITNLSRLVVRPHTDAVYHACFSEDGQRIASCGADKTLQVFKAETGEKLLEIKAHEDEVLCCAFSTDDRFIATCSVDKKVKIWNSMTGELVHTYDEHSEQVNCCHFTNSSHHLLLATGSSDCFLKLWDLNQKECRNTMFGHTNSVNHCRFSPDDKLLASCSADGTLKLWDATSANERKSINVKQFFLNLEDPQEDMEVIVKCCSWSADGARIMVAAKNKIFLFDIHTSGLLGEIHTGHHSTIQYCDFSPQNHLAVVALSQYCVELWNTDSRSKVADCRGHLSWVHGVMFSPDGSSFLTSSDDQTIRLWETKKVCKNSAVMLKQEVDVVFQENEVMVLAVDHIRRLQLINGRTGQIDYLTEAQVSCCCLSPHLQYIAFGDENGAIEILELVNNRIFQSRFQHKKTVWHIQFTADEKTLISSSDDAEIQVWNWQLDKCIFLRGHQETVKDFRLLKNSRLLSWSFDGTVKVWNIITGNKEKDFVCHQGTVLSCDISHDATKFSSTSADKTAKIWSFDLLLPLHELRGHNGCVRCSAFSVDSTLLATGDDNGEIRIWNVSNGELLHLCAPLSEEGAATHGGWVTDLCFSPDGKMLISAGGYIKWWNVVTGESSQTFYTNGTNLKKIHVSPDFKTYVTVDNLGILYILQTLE

Chain of Beta-lactamase (Pseudomonas aeruginosa, UniProt Q79MP6) (Q79MP6 whole entry): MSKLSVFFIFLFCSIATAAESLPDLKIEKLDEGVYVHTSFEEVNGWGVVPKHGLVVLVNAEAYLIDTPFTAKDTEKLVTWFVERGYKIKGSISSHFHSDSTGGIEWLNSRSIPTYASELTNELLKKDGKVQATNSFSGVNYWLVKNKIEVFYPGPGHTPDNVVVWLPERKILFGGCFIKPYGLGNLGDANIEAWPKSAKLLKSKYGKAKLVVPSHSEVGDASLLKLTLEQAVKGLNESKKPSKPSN

Nc1ccc(-c2c3ccc(=O)cc-3oc3cc(O)ccc23)cc1C(=O)O
IC50 [1]: 8.62 µM (active)
IC50 [2]: 3.41 µM (active)
IC50 [3]: 20.3 µM (active)
IC50 [4]: 28.1 µM (active)
IC50 [5]: 14.5 µM (inactive)
AC50 [6]: 0.532 µM (active)
IC50 [7]: 34 µM (active)
EC50 [8]: > 54.7 µM (inactive)
EC50 [9]: > 54.7 µM (inactive)
IC50 [10]: > 89.2 µM (inactive)
EC50 [11]: > 54.7 µM (inactive)

Nc1c(C(=O)c2ccc(Br)s2)oc2ccccc12
EC50 [12]: 71.8 µM (active)
EC50 [13]: 106 µM (active)
IC50 [14]: > 66.2 µM (inactive)
IC50 [15]: > 49.8 µM (inactive)
IC50 [16]: 6.69 µM (active)
IC50 [17]: 15.7 µM (inactive)
IC50 [18]: 30.7 µM (inactive)
IC50 [19]: > 50 µM (inactive)

CC1CCCCC1N(C(=O)c1cc(C2CC2)on1)C1CCOCC1 (configuration not stated)
EC50 [20]: > 50 µM (inactive)
EC50 [21]: > 50 µM (inactive)

Cc1ccc2c(c1)C(=O)c1nc3ccccc3c(=O)n1-2
IC50 [22]: > 100 µM (inactive)
